Where two headings read alike, the source gives them in different places.
Assays:
[1] = male, Syrian golden, hamster, in vivo, po, 500 mg/kg
[2] = male, Syrian golden, hamster, in vivo, po, 500 mg/kg; remark: listed apart in the source
[3] = in vivo; details: male, Syrian golden, hamster, po, 500 mg/kg
[4] = in vivo; details: male, Syrian golden, hamster, po, 500 mg/kg; remark: listed apart in the source
[5] = tested on: Yellow fever virus (YFV); details: read-out: EC50, 50% inhibition of the virus-induced cytopathic effect (CPE); cited from earlier work
[6] = tested on: Yellow fever virus (YFV); details: read-out: EC90 in reducing viral yield; cited from earlier work
[7] = tested on: HCV clinical isolates; details: cited from earlier work
[8] = cited from earlier work
[9] = cited from earlier work; remark: listed apart in the source

Structure (SMILES): C[C@@]1(F)[C@H](O)[C@@H](CO)O[C@H]1n1cnc2c(=O)[nH]c(N)nc21 [AT-273]
- Plasma concentration at 12 h post dose (Ctrough) [1]: 600 ± 100 nM
- Tmax [2]: 8.0 h
- AUC(0-t) [3]: 10.8 ± 1.6 µM·h
- Cmax [3]: 900 ± 100 nM
- MRT last [3]: 9.8 ± 1.1 h
- Tmax [3]: 5.7 ± 4 h
- MRT last ([4]; MRT0-last): 11.6 h

Structure (SMILES): CNc1nc(N)nc2c1ncn2C1OC(COP(=O)(NC(C)C(=O)OC(C)C)Oc2ccccc2)C(O)C1(C)F (stereo not drawn) [AT-281]
- Plasma concentration at 12 h post dose (Ctrough) [1]: 6 ± 2 nM
- Concentration measured in brain tissue [2]: no AT-281 was detected
- Concentration measured in lung tissue [2]: no AT-281 was detected
- MRT0-last [2]: 4.5 h
- EC50 [5]: 310 nM
- EC90 [6]: 260 nM
- AUC(0-t) [3]: 1.7 ± 0.5 µM·h
- Cmax [3]: 600 ± 200 nM
- MRT last [3]: 3.4 ± 1 h
- Tmax [3]: 2 ± 1.7 h
- MRT last ([4]; MRT0-last): 4.2 h
- Tmax [4]: 2 h

Structure (SMILES): CNc1nc(N)nc2c1ncn2[C@@H]1O[C@H](COP(=O)(N[C@@H](C)C(=O)OC(C)C)Oc2ccccc2)[C@@H](O)[C@@]1(C)F.CNc1nc(N)nc2c1ncn2[C@@H]1O[C@H](COP(=O)(N[C@@H](C)C(=O)OC(C)C)Oc2ccccc2)[C@@H](O)[C@@]1(C)F.O=S(=O)(O)O (stereo partly drawn) [AT-527]
- Fold more potent than sofosbuvir [7]: up to 58 fold

Structure (SMILES): CNc1nc(N)nc2c1ncn2C1OC(COP(=O)(O)NC(C)C(=O)O)C(O)C1(C)F (stereo not drawn) [AT-551]
- Plasma concentration at 12 h post dose (Ctrough) [1]: 3400 ± 1700 nM
- Tmax [2]: 2.0 h
- AUC(0-t) [3]: 114 ± 22.1 µM·h
- Cmax [3]: 52400 ± 23500 nM
- MRT last [3]: 4.6 ± 1.5 h
- Tmax [3]: 0.5 h
- MRT last ([4]; MRT0-last): 8.5 h

Structure (SMILES): CNc1nc(N)nc2c1ncn2C1OC(COP(=O)(NC(C)C(=O)OC(C)C)Oc2ccccc2)C(O)C1(C)F (stereo not drawn) [AT-752]
- Alive/total (21 days): 5/5
- ALT (hamster, in vivo): 53 ± 5 IU/L
- Toxicity, as evidenced by weight loss or mortality (hamster, in vivo, 1000 mg/kg): no toxicity
- Half-life in rodent plasma [8]: < 3 min
- Half-life in primate plasma [9]: > 4.67 h

Structure (SMILES): C[C@@]1(F)[C@H](O)[C@@H](COP(=O)(O)OP(=O)(O)OP(=O)(O)O)O[C@H]1n1cnc2c(=O)[nH]c(N)nc21 [AT-9010]
- Concentration measured in brain tissue [2]: no AT-9010 detected
- MRT last ([4]; MRT0-last): 11 h
- MRT last ([4]; Mean residence times (MRT0-last) across tissues): 7 to 11 h
- Tmax [4]: 8 h
